The values below come from EP0696280B1, “SUBSTITUTED PYRROLIDIN-3-YL-ALKYL-PIPERIDINES USEFUL AS TACHYKININ ANTAGONISTS” (MERRELL PHARMACEUTICALS INC., priority 1993, dated 1994).

The IC50 is the concentration that inhibits the measured activity by half.

Where a name gives a salt, the structure may show the parent alone. Read-outs that look alike come from different tables or passages of the source.

For one assay, the target named is T1, NK1 receptor (Cavia porcellus, UniProt P30547).
T1 construct: Tissues or cells were homogenized with a Polytron in 15 volumes of 50 mM Tris-HCl buffer; tissue Keystone Biologicals, Cleveland, OH; host or cells: guinea pig lung membranes
T1 sequence (P30547 whole entry): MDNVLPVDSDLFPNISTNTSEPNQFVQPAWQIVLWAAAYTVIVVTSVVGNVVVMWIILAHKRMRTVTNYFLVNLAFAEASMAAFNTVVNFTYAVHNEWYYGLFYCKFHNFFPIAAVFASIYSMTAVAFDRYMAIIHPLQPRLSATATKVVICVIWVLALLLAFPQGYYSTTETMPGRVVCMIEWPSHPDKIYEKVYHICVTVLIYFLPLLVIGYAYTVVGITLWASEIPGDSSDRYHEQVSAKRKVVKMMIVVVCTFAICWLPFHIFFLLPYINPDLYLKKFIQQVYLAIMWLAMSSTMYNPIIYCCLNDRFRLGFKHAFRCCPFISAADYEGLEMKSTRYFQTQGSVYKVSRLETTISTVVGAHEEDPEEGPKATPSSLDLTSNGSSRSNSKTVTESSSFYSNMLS
The assay is described as follows: Antagonism of iodinated tachykinin binding to NK1 receptor (125I-Bolton Hunter Lys-3 labeled substance P, guinea pig lung membranes). On the procedure: (§1) The NK1 receptor affinity of proposed tachykinin antagonists was devaluated in guinea pig lungs (Keystone Biologicals, Cleveland, OH), affinity for the NK2 receptor evaluated in HSKR-1 cells (which are mouse 3T3 fibroblasts expressing the human jejunal NK2 receptor) and NK-3 receptor affinity was evaluated in freshly collected guinea pig cerebral cortex. Tissues or cells were homogenized with a Polytron in 15 volumes of 50 mM Tris-HCl buffer (pH 7.4, 4°C) and centrifuged. The pellet was resuspended in Tris-HCl buffer and was centrifuged; the pellet was washed twice by resuspension. The final pellet was resuspended at a concentration of 40 mg/ml for tissues (guinea pig lung and cerebral cortex) and 20 mg/ml for cells in incubation buffer and remained at room temperature for at least 15 min prior to use. Receptor binding was initiated by addition of 250 µl membrane preparation in duplicate to 0.1 nM of the following radioligands: ^125I-Bolton Hunter Lys-3 labeled substance P; ^125iodohistidyl-1-neurokinin A; and ^125I-Bolton Hunter labeled Lys-4 eledoisin in a final volume of 500 µl of buffer containing 50 mM Tris-HCl (pH 7.4 at room temperature), 0.1% bovine serum albumin, 2 mM MnCl2, 40 µg/ml bacitracin, 4 µg/ml leupeptin and chymostatin, 1 µM thiorphan and various doses of the putative tachykinin antagonists. Incubations were performed at room temperature for 90 min (NK1 receptor assays) or 2 hr (NK2 and NK3 receptor assays); binding was terminated by addition of 50 mM Tris-HCl buffer (pH 7.4, 4°C) and filtration under vacuum through GF/B filters presoaked with 0.1% polyethyleneimine (NK1 receptor assays) or 0.5% bovine serum albumin (NK2 and NK3 receptor assays). Filter bound radioactivity was quantitated in a gamma counter. Nonspecific binding was defined as binding in the presence of 1 µM substance P, neurokinin A, or eledoisin. Specific binding was calculated by subtracting nonspecific binding from total binding. Competition of iodinated SP, NKA, or eledoisin binding by test compounds or standards was expressed as a percentage of this maximum competition. IC50 values (concentration required to inhibit 50% of receptor binding) were generated for each of the test compounds by nonlinear regression using an iterative curve fitting program (GraphPAD Inplot, San Diego, CA).

The target of assay [1] is T2, human jejunal NK2 receptor (Homo sapiens, UniProt P21452).
T2 construct: expressed in transfected cells; host or cells: HSKR-1 cells (mouse 3T3 fibroblasts)
T2 sequence (P21452 1-398): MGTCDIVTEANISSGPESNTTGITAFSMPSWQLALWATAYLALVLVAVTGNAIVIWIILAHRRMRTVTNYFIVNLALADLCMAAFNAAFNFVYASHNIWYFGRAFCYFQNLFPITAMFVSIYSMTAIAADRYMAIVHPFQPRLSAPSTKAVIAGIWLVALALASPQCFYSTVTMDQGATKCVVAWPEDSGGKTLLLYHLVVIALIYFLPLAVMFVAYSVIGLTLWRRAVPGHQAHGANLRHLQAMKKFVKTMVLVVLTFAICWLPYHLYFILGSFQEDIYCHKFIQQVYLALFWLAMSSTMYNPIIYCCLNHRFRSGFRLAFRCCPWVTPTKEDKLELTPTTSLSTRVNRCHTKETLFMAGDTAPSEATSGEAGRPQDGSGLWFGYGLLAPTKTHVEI
The assay is described as follows: Antagonism of iodinated tachykinin binding to NK2 receptor (125iodohistidyl-1-neurokinin A, HSKR-1 cell membranes). On the procedure:
as §1

The subject of assay [2] is NKA-induced respiratory effects. Kind of assay: Antagonism of NKA aerosol induced respiratory effects in conscious guinea pigs (whole body plethysmography). The conditions noted are these: 20 min prior to NKA aerosol (0.05%); for DYSPNEA ONSET: mean and SEM. Format: in vivo, guinea pig. On the procedure:
(§2) In vivo experiments were performed using male Duncan Hartley guinea pigs (250-350g). Changes in conscious breathing patterns were monitored in four animals simultaneously using modified whole body plethysmography consisting of four small plexiglass boxes each connected to a reference box via Validyne DP 45-16 differential pressure transducers. The 4 boxes were equipped with an air supply line (also used for aerosol delivery) and an exhaust air line. Supply and exhaust lines were of the same length and narrow bore and arose from a common supply chamber and vented to a common exhaust chamber. This system was used to ensure that fluctuations in supply air and atmospheric pressure would remain in phase and be eliminated from the net signal by the differential pressure transducers. The analog pressure signals were digitalized via a Data Translation DT2821 A to D board. Data were collected at a rate of 100 samples/second/animal. Each cycle of pressure change was analyzed using the following parameters: rising and falling slope determined between minimum and maximum pressures, the ratio of rising over falling slope, and the magnitude of the change between initial trough pressure and peak cycle pressure. Using these values (and observing the animals) the pressure cycles were characterized into normal breaths, forced exhalations (apparent by abdominal heaving), significant respiratory events (SREs; usually coughs, less often sneezes or gasps which were characterized by transient, extremely large pressure increases which were distinguishable from noise) and movement/noise with a PCAT 286 running a System V UNIX operating system. Dyspnea was defined as a significant, sustained increase in plethysmograph pressure which was associated with an observable shift to labored breathing in the animal.
(§3) During the course of a typical experiment in which airway responsiveness to various bronchoconstricting agents was examined, aerosols were delivered for 19 min (0.33 ml/min) using a DeVilbiss Ultraneb 99 ultrasonic nebulizer and animals monitored during this time. Prior to nebulization, 1 min of resting breathing was collected to establish a baseline pressure. […] The vehicle for nebulization of all bronchoconstrictive agents was phosphate buffered saline (pH 7.4) which elicited no respiratory effects itself. Putative tachykinin antagonists were administered either (i.v.) 20 min prior to onset of aerosol exposure or orally 1 hour prior to onset (to guinea pigs after an overnight fast).
Table 6 illustrates the effects of the compounds of Example 3; Example 20A; and Example 5A on respiratory effects induced by NKA aerosol. […] These effects were dose dependent i.e. the higher the dose of compound, the greater attenuation of NKA-mediated effects. […]
Compounds were administered 20 min prior to initiation of NKA aerosol (0.05%). Values for each treatment represent the mean and SEM of data from 5-37 animals per dose.

The subject of assay [3] is capsaicin-induced respiratory effects. Kind of assay: Antagonism of capsaicin aerosol induced respiratory effects in conscious guinea pigs (whole body plethysmography). Format: in vivo, guinea pig. The conditions noted are these: for DYSPNEA ONSET / MAXIMUM PRESSURE INCREASE (mmH2O) / SRE NUMBER*: mean and SEM; for SRE NUMBER*: number of coughs/gasps during 19 min exposure. On the procedure:
as §2, §3
Capsaicin aerosol is known to promote release of the tachykinins SP and NKA from sensory nerves in the airways of guinea pigs which may then act upon NK1 and NK2 receptors, respectively to elicit respiratory effects. […]
Values are mean and SEM of data derived from number of animals indicated in parenthesis. Putative tachykinin antagonists were administered intravenously 20 min prior to initiation of capsaicin aerosol (0.001%). *SRE number indicates the number of coughs/gasps which occurred during the 19 min capsaicin exposure period.
Values are mean and SEM of data derived from number of animals indicated in parenthesis. Putative tachykinin antagonists were administered by oral gavage 1 hr prior to initiation of capsaicin aerosol (0.001%). *SRE number indicates the number of coughs/gasps which occurred during the 19 min capsaicin exposure period.

The mark [4] stands for this setting: guinea pig lungs, mean of several experiments, read-out: NK-1 IC50.
Setting [5] is: HSKR-1 cells (mouse 3T3 fibroblasts expressing human jejunal NK2 receptor), mean of several experiments, read-out: NK-2 IC50.
The mark [6] stands for this setting: 1 mg/kg intravenously 20 min prior to capsaicin aerosol (0.001%).
Setting [7] is: 2.5 mg/kg intravenously 20 min prior to capsaicin aerosol (0.001%).
Where [8] appears, read: 5 mg/kg intravenously 20 min prior to capsaicin aerosol (0.001%).
Setting [9] is: 10 mg/kg intravenously 20 min prior to capsaicin aerosol (0.001%).

On to `NC(=O)C1(c2ccccc2)CCN(CCC2(c3ccc4ccccc4c3)CCN(C(=O)c3ccccc3)C2)CC1` (racemic) [Example 8, 1-[2-(1-benzoyl-3-napthalen-2-yl-pyrrolidin-3-yl)-ethyl]-4-phenyl-piperidine-4-carboxylic acid amide], for which the IC50 at NK1 receptor (setting [4]) came to 1480 nM; in assay [1] (setting [5]) it was 94 nM.
`COC(=O)CC[C@H](NC(=O)C1(c2ccccc2)CCN(CCC2(c3ccc(Cl)c(Cl)c3)CCN(C(=O)c3ccccc3)C2)CC1)C(=O)OC` (stereo partly drawn) [Example 6]: the results for the IC50 (on NK1 receptor (setting [4]); in assay [1]) were 182 nM and 15 nM, respectively.
As to `COc1ccc(C2(CCN3CCC(C(N)=O)(c4ccccc4)CC3)CCN(C(=O)c3cc(OC)c(OC)c(OC)c3)C2)cc1OC` (stereo not drawn) [Example 23, 1-[2-[3-(3,4-dimethoxy-phenyl)-1-(3,4,5-trimethoxy-benzoyl)-pyrrolidin-3-yl]-ethyl]-4-phenyl-piperidine-4-carboxylic acid amide], the IC50 came to 20 nM on NK1 receptor and 2680 nM in assay [1] (setting [5]).
With `COc1ccccc1C(=O)N1CCC(CCN2CCC(C(N)=O)(c3ccccc3)CC2)(c2ccc(Cl)c(Cl)c2)C1` (stereo not drawn) [Example 13, 1-[2-[3-(3,4-dichloro-phenyl)-1-(2-methoxy-benzoyl)-pyrrolidin-3-yl]-ethyl]-4-phenyl-piperidine-4-carboxylic acid amide], the IC50 in assay [1] (setting [5]) is 14 nM.
Consider `COc1cc(C(=O)N2CCC(CCN3CCC(C(N)=O)(c4ccccc4)CC3)(c3ccc(Cl)c(Cl)c3)C2)cc(OC)c1OC.Cl` (single isomer, unassigned; (+)) [Example 20A, (+)-1-[2-[3-(3,4-dichloro-phenyl)-1-(3,4,5-trimethoxy-benzoyl)-pyrrolidin-3-yl] -ethyl]-4-phenyl-piperidine-4-carboxylic acid amide hydrochloride], for which the “DYSPNEA INCIDENCE” value is listed as 100% (10/10) in assay [2] (1 mg/kg); 90% (9/10) in assay [2] (5 mg/kg); 70% (7/10) in assay [2] (10 mg/kg); 77.8% (7/9) in assay [3] (setting [6]); 100% (10/10) in assay [3] (setting [7]); 44.4% (4/9) in assay [3] (setting [8]). For the same molecule, the “DYSPNEA INCIDENCE” value in assay [3] (setting [9]) is listed as 55.6% (5/9). Also, the “DYSPNEA ONSET” value worked out at 451 ± 30 s in assay [2] (1 mg/kg); 706 ± 82 s in assay [2] (5 mg/kg); 829 ± 105 s in assay [2] (10 mg/kg); 331 ± 22 s in assay [3] (setting [6]); 426 ± 57 s in assay [3] (setting [7]); 597 ± 186 s in assay [3] (setting [8]). Moreover, the “DYSPNEA ONSET” value in assay [3] (setting [9]) worked out at 592 ± 71 s. In addition, the “MAXIMUM PRESSURE INCREASE (mmH2O)” value in assay [3] (setting [6]) is 1.0 ± 0.1 mmH2O; in assay [3] (setting [7]) it was 0.6 ± 0.1 mmH2O; in assay [3] (setting [8]), 0.8 ± 0.06 mmH2O; in assay [3] (setting [9]) it was 0.8 ± 0.1 mmH2O. The “SRE NUMBER*” value in assay [3] (setting [6]) is reported as 9.9 ± 2.7; in assay [3] (setting [7]) it was 8.3 ± 1.6; in assay [3] (setting [8]) it was 4.4 ± 1.9; in assay [3] (setting [9]), 3.3 ± 1.1.
As for `NC(=O)C1(c2ccccc2)CCN(CCC2(c3ccc4ccccc4c3)CC(=O)N(Cc3ccccc3)C2)CC1` (racemic) [Example 12], the IC50 on NK1 receptor (setting [4]) came to 810 nM; in assay [1] (setting [5]), 179 nM.
Regarding `COc1cc(C(=O)N2CCC(CCN3CCC(C(N)=O)(c4ccccc4)CC3)(c3ccccc3)C2)cc(OC)c1OC` (stereo not drawn) [Example 22A, 1-[2-[3-phenyl-1-(3,4,5-trimethoxy-benzoyl)-pyrrolidin-3-yl]-ethyl]-4-phenyl-piperidine-4-carboxylic acid amide hydrochloride], the IC50 at NK1 receptor was 17.4 nM; in assay [1], 1190 nM.
